In the test the test system is B. cenocepacia K56-2. The test can be described thus: Multistep resistance by serial passaging at 0.5× MIC. The class given is cell-based, Burkholderia cenocepacia. Particulars: for change of MIC on serial passaging: 24 days of passaging at 0.5× MIC; for MIC: Burkholderia cenocepacia.
The mark [1] stands for this setting: K562, 0 h, day 0 of serial passaging, read-out: starting MIC in multistep resistance assay.
Setting [2] is: K562, after 12–16 days of passaging at 0.5× MIC, read-out: MIC reached on serial passaging.

SMILES strings stand for the structures. Values after ≈ are worked out from the molar mass of the structure shown. Where two headings read alike, the source gives them in different places.

On to `CC(O)C[S][Au-][P+](C)(C)C` (stereo not drawn) [MS-40S], for which the “change of MIC on serial passaging” value is listed as “no apparent increase”.

For `C[C@@H](O)[C@H]1C(=O)N2C(C(=O)O)=C(S[C@@H]3CN[C@H](C(=O)N(C)C)C3)[C@H](C)[C@H]12` [MEM, meropenem, reference compound], the MIC (as a rule, the least concentration at which growth counts as inhibited) runs as follows: under setting [1], 16 mg/L (≈ 41.7 µM); under setting [2], 256 mg/L (≈ 668 µM).

Consider `C[C@H]1c2cccc(O)c2C(=O)C2=C(O)[C@]3(O)C(=O)C(C(N)=O)=C(O)[C@@H](N(C)C)[C@@H]3[C@@H](O)[C@@H]21` [DOX, doxycycline, reference compound], for which the minimum inhibitory concentration (MIC) runs as follows: under setting [1], 4 mg/L (≈ 9 µM); under setting [2], 256 mg/L (≈ 576 µM).

For the compound `C[PH](C)(C)[Au][S]CCO` [MS-40, 2-mercaptoethanolatotrimethylphosphine gold(I)], the “change of MIC on serial passaging” value was “no apparent increase”.

These data come from PMC8697972, “New Auranofin Analogs with Antibacterial Properties against Burkholderia Clinical Isolates” (Antibiotics, 2021).
